# US11547681B2, “N-acylethanolamide derivatives and uses thereof” (ELIEM THERAPEUTICS, INC., priority 2016, dated 2023)
# Experiments:
# in vitro = settings: male, Beagle, dog; for Measured concentration of PEA (analyte) / % Remaining of Initial: 1 μM
# Summary of the method: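 Test article at 1 μM final was incubated at 37° C with S9 reaction mixture, and the reaction was started by adding cofactor cocktail. Samples taken at 0, 10, 20, 30 and 60 min were quenched in acidified acetonitrile, and prodrug and PEA were measured by LC-MS/MS. Half-life came from single-phase exponential decay of percent remaining versus time 0.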
# [1] = Plasma stability (37° C., pH 7.4), human; type: in vitro ADME; settings: for % Remaining of Initial: human plasma, 1 μM, n = 1
# Method: (§1) Studies were carried out in mixed-gender human plasma (Lot #GLP530-5), male Sprague-Dawley rat (Lot #RAT297944, RAT313140), male CD-1 mouse (Lot #MSE237700), and male Beagle dog (Lot #BGL87670, BGL82614), collected on sodium heparin. Plasma was adjusted to pH 7.4 prior to initiating the experiments. DMSO stocks were first prepared for the test articles. Aliquots of the DMSO solutions were dosed into 700 μL of plasma, which had been pre-warmed to 37° C., at a final test article concentration of 1 μM. […] Samples were stored at 4° C. until the end of the experiment. After the final time point was sampled, the plate was mixed and then centrifuged at 3,000 rpm for 10 minutes. Calibration standards were prepared in matched matrix. […] Analytical conditions are outlined in Appendix 8-1.
# as §1, with “#AS1650-2),” for “#GLP530-5),”, “#RAT297944),” for “#RAT297944, RAT313140),”, “CD-I” for “CD-1”, “#BGL91384),” for “#BGL87670, BGL82614),”, “10-1.” for “8-1.”
# Studies were carried out in mixed-gender human plasma (Lot #AS1650-2), male Sprague-Dawley rat (Lot #RAT297944), male CD-1 mouse (Lot #MSE237700), and male Beagle dog (Lot #BGL91384), collected on sodium heparin. Plasma was adjusted to pH 7.4 prior to initiating the experiments. DMSO stocks were first prepared for test articles. […] Samples were stored at 4° C. until the end of experiment. After the final time point was sampled, the plate was mixed and then centrifuged at 3,000 rpm for 10 minutes. Calibration standards were prepared in matched matrix. […] Analytical conditions are outlined in Appendix 13-1.
# Studies were carried out in mixed-gender human plasma (Lot #AS 1650-2), male Sprague-Dawley rat (Lot #RAT320835), male CD-1 mouse (Lot #MSE260693), and 6 male Beagle dog (Lot #BGL91384), on sodium heparin. Plasma was adjusted to pH 7.4 prior to initiating the experiments. DMSO stocks were first prepared for the test articles. Aliquots of the DMSO solutions were dosed into 700 μL of plasma, which had been pre-warmed to 37° C., at a final test article concentration of 1 μM. […] Samples were stored at 4° C. until the end of the experiment. After the final time point was sampled, the plate was mixed and then centrifuged at 3,000 rpm for 10 minutes. Calibration standards were prepared in matched matrix. […] Analytical conditions are outlined in Appendix 17-1.
smiles,measurement,setting,value
CCCCCCCCCCCCCCCC(=O)NCCOC(=O)CCC(=O)OC(COC(=O)CCC)COC(=O)CCC [Compound I-16],Measured concentration of PEA (analyte),in vitro; 0 min,0.042 µM
same,Measured concentration of PEA (analyte),in vitro; 10 min,0.50 µM
same,Measured concentration of PEA (analyte),in vitro; 20 min,0.57 µM
same,Measured concentration of PEA (analyte),in vitro; 30 min,0.54 µM
same,Measured concentration of PEA (analyte),in vitro; 60 min,0.68 µM
same,% Remaining of Initial,"in vitro; s9, 0 h",100%
same,% Remaining of Initial,"in vitro; s9, 10 min",1.7%
same,% Remaining of Initial,"in vitro; s9, 20 min",<1.0%
same,% Remaining of Initial,"in vitro; s9, 0.5 h",<1.0%
same,% Remaining of Initial,"in vitro; s9, 1 h",<1.0%
same,microsomal CLint at 1 μM,"in vitro; s9, CLint",> 69.3 µL/min/mg
same,half-life at 1 μM,"in vitro; s9, Half-life",< 10 min
same,half-life at 1 μM,"[1]; both sexes, human, plasma, pH 7.4, human plasma, read-out: Half-life",31 min
same,% Remaining of Initial,[1]; 0 min,100%
same,% Remaining of Initial,[1]; 15 min,78%
same,% Remaining of Initial,[1]; 30 min,51%
same,% Remaining of Initial,[1]; 60 min,24%
same,% Remaining of Initial,[1]; 120 min,5.8%
